Data on 2 molecules can be found in publication PMC6776562, “Inhibition of Rac1-dependent forgetting alleviates memory deficits in animal models of Alzheimer’s disease” (Protein & Cell, 2019).

One data set deals with Rac1 (Mus musculus, UniProt P63001). The data set can be described thus: Rac1 activity (Rac1-GTP/total Rac1) in hippocampal tissue by PAK-PBD pull-down and Western blot after drug administration. Type of data set: in vivo, APP/PS1 mice. The following applies: APP/PS1 mice (eight-month-old); oral CS7171 50 mg/kg, CS7170 50 mg/kg, JKF-034 40 mg/kg once per day. The protocol:
We first assayed Rac1 activity in hippocampal tissues from AD patients and healthy age-matched, non-demented controls (Detailed information is provided in Table 1). The levels of the guanosine triphosphate (GTP)-bound active form of Rac1 were measured using the p21-binding domain (PBD) pull-down assay. The GTP-bound active form of Rac1 was pulled down through the interactive p21-activated kinase (PAK) fragment using PAK-PBD beads and measured using a Western blot assay (Fig. 1A), as described in previous studies (Shuai et al., [2010]; Liu et al., [2016]) from our laboratory and studies conducted by other research groups (Sander et al., [1998]; Barnes et al., [2008]). The total amount of Rac1 and actin were also evaluated using the Western blot analyses (See MATERIALS AND METHODS). […] Since there were no significant differences in total Rac1 levels between the experimental and control groups (See representative Western blot in all relevant figures), the ratio of Rac1-GTP to total Rac1 was taken as a measure of Rac1 activity. […] Consistent with this observation, Rac1 activity was also elevated in the hippocampus of APP/PS1 mice at different age (Fig. 1D). […] This increase was more pronounced in older flies (Fig. S1F).
Mice were treated with EHop-016 (10 mg/kg), CS7170 (50 mg/kg), CS7171 (50 mg/kg), and JKF-034 (40 mg/kg). These drugs were dissolved in saline (0.9% NaCl) containing 0.5% Tween-80 (Sigma P4780). Each mouse received 200 μL of the solution by intragastric administration once per day (administered at 9:00 am). The drug administration was started seven days before the beginning of the Morris water maze (MWM) task and was continued until the end of the assay. All control groups were fed with vehicle solution.
The hippocampal tissues from human subjects and mice were harvested and stored in a liquid nitrogen tank for biochemical assay. The tissues were homogenized in cold lysis buffer (Merck-Millipore, 20-168). The insoluble debris were removed after centrifugation at 13,000 rpm (for 10 min, at 4 °C). For GTP-bound Rac/Cdc42, lysates were incubated with GST-tagged PAK (p21-activated kinase)-PBD agarose beads (Cytoskeleton, PAK02) overnight at 4 °C. On the second day, the beads were washed three times with lysis buffer before subjecting them to SDS-PAGE (15%) and transferring them onto nitrocellulose membranes (Millipore, HATF00010). The membranes were incubated with primary antibodies (for Rac1: BD Transduction Laboratories, #610650, 1:2,000 dilution; for Cdc42, Santa Cruz Biotechnology, lot No. sc-8401, 1:500 dilution) overnight at 4 °C and with HRP-conjugated goat anti-mouse IgG (Cell Signaling Technology, #7076) for 1 h at room temperature. Intensities of the detected bands were analyzed using ImageJ software (National Institutes of Health). The total amount of Rac1 in the lysate was detected using a routine Western blot procedure. RhoA-GTP levels were measured by using the Rho-GTP monoclonal antibody (New East, lot No. 26904, Dilution: 1:1,000). Information regarding the other antibodies used is as follows: anti-RhoA (67B9), Cell Signaling, lot No. #2117, dilution: 1:1,000; anti-Actin, Clone C4, Millipore, lot No. #3018859, dilution: 1:2,000; anti-Amyloid 1-42 6E10, BioLegend, lot No. 803001, dilution: 1:1,000; anti-Phospho-PAK1 (Ser144)/PAK2 (Ser141), Cell Signaling, lot No. #2606, dilution: 1:1,000.

The next data set deals with MDR-MDCK cell line. The data set can be described thus: In vitro blood-brain barrier permeability assay. Type of data set: in vitro ADME. The following applies: 5 μmol/L, 37 °C, 90 min. The protocol: The MDR-MDCK cell line can be used as a fast blood-brain barrier (BBB) model to aid drug discovery (Wang et al., [2005]). In this study, the MDR-MDCK cell line was used to evaluate the permeability coefficients of CS7171 and JKF-034. Briefly, CS7171 and JKF-034 were prepared to final concentrations of 5 μmol/L. The cells were dosed on the basolateral side (B-A) and apical side (A-B) and incubated at 37 °C for 90 min. Each test was performed in duplicate. The apparent permeability coefficient, Papp, was calculated using the following formula: Papp=VA/Area×Time×(drugacceptor,90-min/drugdonor,0-min×Dilution Factor
VA is the volume in the acceptor well, Area is the surface area of the membrane, Time is the total transport time in seconds, [drug]donor, 0-min is the donor drug concentration measured at 0 min; [drug]acceptor, 90-min is the acceptor drug concentration measured at 90 min; dilution factor is the degree of dilution of the donor sample before loading to LC-MS/MS.

A short description of data set [1]: In vitro metabolic stability in liver microsomes (species not separated). Type of data set: in vitro ADME, human, monkey, and mouse. Particulars: all species of Table 4. The protocol:
Measurements of metabolic stability can be performed with liver microsomes, which are known to contain the major drug-metabolizing enzymes and UDP-glucuronosyltransferase (Baranczewski et al., [2006]). The in vitro metabolic stability levels of CS7171 and JKF-034 were measured using human, monkey, and mouse liver microsomes. The metabolic half-time (T1/2) and intrinsic clearance (Clint) were assayed using LC-MS analysis. Ketanserin is a potent, orally effective antagonist of endogenous serotonin. Its pharmacological profile is well studied (Brogden and Sorkin, [1990]). In this study, we used ketanserin as a control. If the T1/2 of the tested compound was 30–120 min, the compound was considered to show moderate metabolism in liver microsomes. If the T1/2 value was less than 30 min, the compound was considered to be susceptible to metabolism in liver microsomes.

Turning to `O=C1NN(c2ccc(Cl)c(Cl)c2)C(=O)C1=Cc1ccc(O)c(N(O)O)c1` [CS7171], the “hippocampal Rac1 activity (Rac1-GTP/total Rac1)” value on Rac1 is reported as “inhibited hippocampal Rac1 activity”. Moreover, in the data set on MDR-MDCK cell line, the “Papp Mean, A-B” value was 7.91 10^−6 cm/s and the “Papp Mean, B-A” value is recorded as 3.61 10^−6 cm/s. Besides, the “T1/2 in liver microsomes” value in data set [1] is recorded as “less than 30 min”.
As for `O=S(=O)(c1ccccc1)N1CCN(Cc2ccccc2)CC1` [JKF-034], the “hippocampal Rac1 activity (Rac1-GTP/total Rac1)” value on Rac1 is “inhibited Rac1 activity”. For the same molecule, in the data set on MDR-MDCK cell line, the “Papp Mean, A-B” value was 57.33 10^−6 cm/s and the “Papp Mean, B-A” value was 32.79 10^−6 cm/s. In addition, in data set [1], the “T1/2 in liver microsomes” value is listed as “less than 30 min”.
